According to ChEMBL document CHEMBL3507680, “University of Dundee, Gates Library screen for HepG2 cell viability”:

Assay: Human HepG2 cell viability assay in 384 well format
Assay type: toxicity, cell-based
Set-up: dose 125 nL, time 70.5 hour; concentration not given beside the values
Conditions: HepG2 cells, read-out: Inhibition

SMILES: COc1ccc(-c2csc(N)c2C#N)cc1OC
- cytotoxicity at 70.5 h: -13%

SMILES: COCC1CN(Cc2ccsc2)Cc2cnn(C)c21 (stereo unspecified)
- cytotoxicity at 70.5 h: -2.85%

SMILES: N#Cc1ccc(C(=O)N2C[C@H](OCc3cccnc3)[C@H]3COC[C@H]32)cc1
- cytotoxicity at 70.5 h: 3.47%

SMILES: O=C1CC2(CCN(c3nncs3)C2)CN1c1cccc(F)c1 (stereo unspecified)
- cytotoxicity at 70.5 h: -3.52%

SMILES: O=C(c1ccc[nH]1)N1C[C@H](OCc2ccccn2)[C@H]2COC[C@H]21
- cytotoxicity at 70.5 h: -5.92%

SMILES: O=c1ccc2c([nH]1)CCC(NCc1ccncc1)C2 (stereo unspecified)
- cytotoxicity at 70.5 h: -2.51%

SMILES: O=C1CC2(CCN(c3nncs3)C2)CN1c1cncnc1 (stereo unspecified)
- cytotoxicity at 70.5 h: -0.39%

SMILES: CCCC(=O)N1CCC2(CC1)CN(Cc1cccc(C)n1)C(=O)CO2
- cytotoxicity at 70.5 h: 0.856%

SMILES: COc1ccc(Br)c(C(=O)NCC2CCN(C(=O)c3ccoc3)CC2)c1
- cytotoxicity at 70.5 h: 0.959%

SMILES: CC(=O)NCCN1CCC(c2cccs2)CC1
- cytotoxicity at 70.5 h: 0.738%

SMILES: O=C(NCCN1CCC(c2cccs2)CC1)Nc1cccs1
- cytotoxicity at 70.5 h: -3.14%

SMILES: CSCC(C)(O)CNC(=O)c1cc(Br)ccc1Cl (stereo unspecified)
- cytotoxicity at 70.5 h: 16.5%

SMILES: O=S(=O)(NCC1(O)CCOc2ccccc21)c1cccs1 (stereo unspecified)
- cytotoxicity at 70.5 h: 3.15%

SMILES: COC(=O)c1sccc1S(=O)(=O)NCC1(O)CCOc2ccccc21 (stereo unspecified)
- cytotoxicity at 70.5 h: -4.94%

SMILES: O=S(=O)(NCC1(O)CCOc2ccccc21)c1ccc(Br)s1 (stereo unspecified)
- cytotoxicity at 70.5 h: 3.29%

SMILES: O=C(c1cnn2c1OCCC2)N1CCN(C/C=C/c2ccccc2)CC1
- cytotoxicity at 70.5 h: 7.17%

SMILES: O=C(NCc1ccccn1)c1nnn(-c2ccc(Br)cc2)n1
- cytotoxicity at 70.5 h: 10.5%

SMILES: Cn1c(C(F)(F)F)nn(CCNC(=O)c2cnc3ccccc3n2)c1=O
- cytotoxicity at 70.5 h: -2.86%

SMILES: COC(=O)c1sccc1S(=O)(=O)N1CCC(Oc2ncccc2Cl)CC1
- cytotoxicity at 70.5 h: 2.59%

SMILES: N#Cc1ccc(OC2CCN(C(=O)c3ccc4c(c3)OCO4)CC2)nc1
- cytotoxicity at 70.5 h: 17.3%

SMILES: CN(C)S(=O)(=O)N1CCC(Oc2cnccn2)CC1
- cytotoxicity at 70.5 h: -0.386%

SMILES: O=C(c1ccc2c(c1)OCO2)N1CCCSCC1CN1CCCC1 (stereo unspecified)
- cytotoxicity at 70.5 h: 0.782%

SMILES: COCCN(Cc1ccoc1)C(=O)c1ccccc1Cl
- cytotoxicity at 70.5 h: 6.96%

SMILES: Cc1cc(S(=O)(=O)N2CCC(S(C)(=O)=O)CC2)ccc1F
- cytotoxicity at 70.5 h: -0.414%

SMILES: COc1ccc(S(=O)(=O)N2CCC(S(C)(=O)=O)CC2)cc1C
- cytotoxicity at 70.5 h: 5.77%

SMILES: O=C(CC1CCCC1)NCCn1ccc(-c2ccccn2)n1
- cytotoxicity at 70.5 h: 4.96%

SMILES: Cn1nc(CNC(=O)C2CCCC2)cc1C1CC1
- cytotoxicity at 70.5 h: 38.9%

SMILES: O=S(=O)(Nc1cnn(C2CCOCC2)c1)c1ccc(F)c(F)c1
- cytotoxicity at 70.5 h: 1.31%

SMILES: O=S(=O)(Nc1cnn(C2CCOCC2)c1)c1ccc2c(c1)CCO2
- cytotoxicity at 70.5 h: -5.29%

SMILES: O=C(NCCC1=CCCCC1)C1CCCN(c2ccc3nncn3n2)C1 (stereo unspecified)
- cytotoxicity at 70.5 h: 9.17%

SMILES: O=C(CSC1CCc2ccccc2NC1=O)NCCc1ccco1 (stereo unspecified)
- cytotoxicity at 70.5 h: 7.74%

SMILES: CCOC(=O)N1CCN(C(=O)c2sc(-c3ccccc3F)nc2C)CC1
- cytotoxicity at 70.5 h: -11.8%

SMILES: COc1ccccc1NC(=O)CSC1CCc2ccccc2NC1=O (stereo unspecified)
- cytotoxicity at 70.5 h: -10.1%

SMILES: O=C(Cn1ccc2c(Cl)cccc21)N1CCC2(CC1)OCCO2
- cytotoxicity at 70.5 h: -4.3%

SMILES: CC(NC(=O)N1CCN(c2ccc(Cl)cc2)CC1)C(=O)N1CCSCC1 (stereo unspecified)
- cytotoxicity at 70.5 h: -12.6%

SMILES: O=C(Cn1cc(-c2ccccc2)ncc1=O)Nc1ccncc1
- cytotoxicity at 70.5 h: -13.4%

SMILES: CC(C)C(NC(=O)N1CCN(c2ccc(Cl)cc2)CC1)C(=O)NC1CC1 (stereo unspecified)
- cytotoxicity at 70.5 h: -6.65%

SMILES: O=C1CC(c2ccsc2)c2sc(C(=O)O)c(-c3ccccc3)c2N1 (stereo unspecified)
- cytotoxicity at 70.5 h: -11.4%

SMILES: Cc1[nH]/c(=N\C(=O)c2csc(NC3CC3)n2)sc1C
- cytotoxicity at 70.5 h: -5.91%

SMILES: CCOc1ccc(Cl)cc1CNCCCn1ccnc1
- cytotoxicity at 70.5 h: 23.2%

SMILES: CCOc1cccc(CNc2ccccc2C(=O)OC)c1O
- cytotoxicity at 70.5 h: 3.64%

SMILES: O=S(=O)(NC1=NCN(CCc2cccs2)CN1)c1ccc(F)cc1
- cytotoxicity at 70.5 h: -20.8%

SMILES: CCCNC(=O)c1cc2c([nH]c1=O)CC(c1cccs1)CC2=O (stereo unspecified)
- cytotoxicity at 70.5 h: -19.4%

SMILES: Cc1cccc(N2Cc3nc(=O)[nH]n3C2=O)c1
- cytotoxicity at 70.5 h: -14.3%

SMILES: Cc1c(C)n(-c2ccccn2)c2nc3c(c(N)c12)CCCC3
- cytotoxicity at 70.5 h: -9.17%

SMILES: O=C1N(c2ccccc2)Cc2nc(=O)[nH]n21
- cytotoxicity at 70.5 h: -27.8%

SMILES: CNc1oc(-c2ccc(OC)c(S(=O)(=O)N3CCCCC3)c2)nc1C#N
- cytotoxicity at 70.5 h: -18%

SMILES: CSCCC(CO)NC(=O)c1sc(-c2ccccc2Cl)nc1C (stereo unspecified)
- cytotoxicity at 70.5 h: -23.9%

SMILES: CC(C)c1nnc2ccc(N3CCC(C(N)=O)CC3)nn12
- cytotoxicity at 70.5 h: 3.97%

SMILES: O=C(Cc1csc(-c2ccc(Cl)cc2)n1)NC(C(=O)O)c1ccccc1 (stereo unspecified)
- cytotoxicity at 70.5 h: -9.96%

SMILES: COc1ccc(N2CCC(C(=O)/N=c3/[nH]ccs3)CC2)nn1
- cytotoxicity at 70.5 h: -7.23%

SMILES: CNc1oc(-c2cc(S(=O)(=O)N3CCCCCC3)c(C)o2)nc1C#N
- cytotoxicity at 70.5 h: -20.9%

SMILES: COC(=O)CNC(=O)CSCc1nc(O)c2cc(C(C)C)sc2n1
- cytotoxicity at 70.5 h: -14.3%

SMILES: CCOC(=O)N1CCN(c2nc(NC)c3ccccc3n2)CC1
- cytotoxicity at 70.5 h: -15.5%

SMILES: Cc1ccc(-c2csc(N)c2C#N)cc1
- cytotoxicity at 70.5 h: -16.3%

SMILES: Cc1ccc(CNS(=O)(=O)CC2=NC(=O)n3cccc3C2=O)cc1
- cytotoxicity at 70.5 h: -10.8%

SMILES: CCOc1ccc(-n2nnc(C(=O)O)c2-c2ccncc2)cc1
- cytotoxicity at 70.5 h: 12.9%

SMILES: Cc1cc2nc(SCC(=O)N3CCCC3)n(-c3ccccc3)c(=O)c2[nH]1
- cytotoxicity at 70.5 h: -21.9%

SMILES: Cc1ccc(F)c(-n2nnc(C(=O)O)c2-c2ccncc2)c1
- cytotoxicity at 70.5 h: -5.82%

SMILES: CCOc1ccc(-n2nnc(C(=O)O)c2-c2ccccn2)cc1
- cytotoxicity at 70.5 h: -11.9%

SMILES: CCN(c1ccc(C(=O)NCCCN2CCCC2)cc1)S(=O)(=O)CC
- cytotoxicity at 70.5 h: -8.8%

SMILES: CC(C)n1c(=O)nc2n1C(=O)N(c1ccc(F)cc1)C2
- cytotoxicity at 70.5 h: -10.1%

SMILES: O=C(COc1coc(CN2CCCCC2)cc1=O)NCc1ccccc1
- cytotoxicity at 70.5 h: -15.4%

SMILES: COc1cccc2ccn(CCC(=O)N3CCCC(C(=O)O)C3)c12 (stereo unspecified)
- cytotoxicity at 70.5 h: -22.2%

SMILES: CNc1nc2c(s1)C(c1c(F)cccc1Cl)CC(=O)N2 (stereo unspecified)
- cytotoxicity at 70.5 h: -6.14%

SMILES: CC(CNCc1ccncc1)Oc1ccccn1 (stereo unspecified)
- cytotoxicity at 70.5 h: -12.5%

SMILES: CCOC(=O)N1CCN(c2nc(NCCCO)c3ccccc3n2)CC1
- cytotoxicity at 70.5 h: -21.9%

SMILES: CC(O)CNCc1ccc(OCc2ccc3c(c2)OCCO3)cc1 (stereo unspecified)
- cytotoxicity at 70.5 h: 19.4%

SMILES: O=C(c1ccncc1F)N1CC[C@@H]2OC(COCC3CC3)CC[C@@H]21 (stereo partly specified)
- cytotoxicity at 70.5 h: 5.27%

SMILES: CC(C)CN1CCC2(CC1)CC(NS(C)(=O)=O)c1ccccc1O2 (stereo unspecified)
- cytotoxicity at 70.5 h: 3.23%

SMILES: CC(C)CN1CCC2(CC1)C(=O)Nc1ccc(C(=O)NC(C)C)cc12
- cytotoxicity at 70.5 h: -0.986%

SMILES: CC(C)NC(=O)c1ccc2c(c1)C1(CCN(C)CC1)C(=O)N2
- cytotoxicity at 70.5 h: 2.1%

SMILES: CC(C)NC(=O)N1C[C@H](OCc2cccnc2)[C@H]2COC[C@H]21
- cytotoxicity at 70.5 h: 0.936%

SMILES: O=C(CC1CCC2(CC1)CCN(Cc1ccncc1)CC2)N1CCCC1
- cytotoxicity at 70.5 h: 6.54%

SMILES: O=c1ccc2c([nH]1)CCC(NCc1ccc(F)cc1)C2 (stereo unspecified)
- cytotoxicity at 70.5 h: -5.16%

SMILES: CNC(=O)CN1CC[C@H]2CN(C(=O)c3cccn3C)C[C@H]2C1
- cytotoxicity at 70.5 h: -5.44%

SMILES: O=C(Cc1ccccn1)N1C[C@H](OCc2cccnc2)[C@H]2COC[C@H]21
- cytotoxicity at 70.5 h: 0.247%

SMILES: c1cncc(C2COC3(CCN(CC4CCOCC4)CC3)C2)c1 (stereo unspecified)
- cytotoxicity at 70.5 h: 1.21%

SMILES: CN(C)CCN1CCN(Cc2ccco2)Cc2cccnc21
- cytotoxicity at 70.5 h: -4.07%

SMILES: c1cncc(CN2CCC3(CC2)CC(c2cccnc2)CO3)c1 (stereo unspecified)
- cytotoxicity at 70.5 h: -6.23%

SMILES: COc1ccc(C2C3=C(COC3=O)Nc3[nH]nc(C)c32)cc1OC (stereo unspecified)
- cytotoxicity at 70.5 h: -22.8%
